Laboratory results reported in paper PMC5712521, “Dendrogenin A drives LXR to trigger lethal autophagy in cancers” (Nature Communications, 2017).

What was measured:
B16F10 cells [1] = assay: DDA-induced cytotoxicity (cell death); type: cell-based; settings: B16F10; 5 µM 22(R)HC, 0.5 µM TO, 1 µM GW
Method: (§1) Melanoma cells were seeded into 6-well plates at 60,000 cells per well and AML cells at 250,000 cells/ml. The cells were then treated with control solvent vehicle (1/1000 ethanol in water) or DDA. Where indicated, treated cells were incubated in the presence or absence of each inhibitor for time shown. Cell death was determined by the trypan blue exclusion assay. Cells were scraped and resuspended in trypan blue solution (0.25% (w/v) in PBS) and counted in a Malassez cell under light microscopy. Cell viability was then quantified by counting viable (trypan blue-negative) and dead cells (trypan blue-positive).
(§2) Supplementary Fig. 1. a DDA inhibited m elanom a colony form ation. Melanom a cells were […]
(§3) a 0.5% solution of crystal violet in water and analyzed by microscopy. Images are representative of 5 independent experiments. b Evaluation of DDA-induced cytotoxicity (cytotox) and clonogenicity (clono) inhibition in a subset of human (H) and mouse (M) m elanom a cell lines. T he BRaf status in m elanom a cells lines is shown. […]

SKMEL-28 cells [2] = assay: DDA-induced cytotoxicity (cell death); type: cell-based; settings: SKMEL-28; 5 µM 22(R)HC, 0.5 µM TO, 1 µM GW
Method: as §1, §2, §3

B16F10 cells [3] = assay: RT-qPCR of LXR-responsive genes; type: cell-based, mouse; settings: 8 h, 2.5 µM DDA, 10 µM 22(R)HC, 1 µM GW, 100 nM TO, vs vehicle
Method: (§4) Total RNA was extracted from tumor cells or MEFs using an RNA Extraction kit (Qiagen) or Trizol (Invitrogen), respectively, and was quantified with NanoDrop. Complementary DNA (cDNA) synthesis was performed with 1 μg RNA iScript Reverse Transcriptase (Bio-Rad). 25 ng cDNA was amplified using SyBR Supermix (Bio-Rad). RNA expression of the different genes of interest (Supplementary Tables 1, 2) were determined using the ΔΔCT method, where the difference in the threshold cycle (ΔCT) values of the target gene and the housekeeping gene for each sample was normalized to the ΔCT value of the untreated sample.
(§5) Supplementary Fig. 4. a R egulat ion of LXR-responsive genes b y D DA and other k nown LXR
(§6) ligands in B16F10 and SKMEL- 28 cells transfected with s iRN A targeting LXRβ ( siLXRβ) or
(§7) with contro l siRN A scram ble (siSC). Cells were treated for 8 h with either solvent vehicle, 2.5
(§8) µM DD A, 10 µM 22(R) hydrox ycholesterol (22(R)HC), 1 µM GW 3965 (GW ) or 100 nM
(§9) T O901317 (T O). […]

SKMEL-28 cells [4] = assay: RT-qPCR of LXR-responsive genes; type: cell-based, human; settings: 8 h, 2.5 µM DDA, 10 µM 22(R)HC, 1 µM GW, 100 nM TO, vs vehicle
Method: as §4, §5, §6, §7, §8, §9

B16F10 cells [5] = assay: Sterol analysis by GC/MS; type: cell-based, mouse; settings: B16F10, 24 h, 10 µM 22(R)HC, 1 µM GW, 100 nM TO
Method: Sterols in cell homogenates were extracted with a solvent mixture containing chloroform/methanol 2/1 (v/v) spiked with epicoprostanol as the internal standard. Lipids were partitioned in chloroform after the addition of saline and saponified by methanolic potassium hydroxide (0.5 N, 60 °C, 15 min). The fatty acids released were methylated with BF3-methanol (12%, 60 °C, 15 min) to not interfere with the chromatography of sterols. The sterols were re-extracted in hexane and silylated, as described previously. The trimethylsilylether derivatives of the sterols were separated by gas chromatography (GC) (Hewlett–Packard 6890 series) in a medium polarity capillary column RTX-65, (65% diphenyl 35% dimethyl polysiloxane, length 30 m, diameter 0.32 mm, film thickness 0.25 μm (Restesk, Evry, France)). The mass spectrometer (Agilent 5975 inert XL) in series with the GC was set up for the detection of positive ions. Ions were produced in the electron impact mode at 70 eV. Sterols were identified by the fragmentogram in the scanning mode and quantified by selective monitoring of the specific ions after normalization with the internal standard epicoprostanol and calibration with weighed standards. […]
Anal yses were perform ed by GC/MS. f Quantification of sterols accumulated in
m elanom a cells after 24 h treatm ent with 10 µM 22(R) HC, 1 µ M GW , 100 nM T O or solvent
vehicle. […]

HL60 cells = assay: qRT-PCR of Nur77 and NOR1; type: cell-based, human; settings: HL60, 24 h; 5 µM DDA, 2 µM TO, 2 µM GW, 10 µM 22(R)HC
Method: as §4
(§10) Supplementary Fig. 6. […]
(§11) D ata are expressed relative to the control (solvent vehic le). D ata from b, f, g, h, j, p, q ar e the m eans ± S.E.M. of 3 independent experiments performed in triplicate (*P<0.05, **P<0.01, ***P<0.001, t test). Images are representative of 3 independent experim ents.

KG1 cells = assay: qRT-PCR of Nur77 and NOR1; type: cell-based, human; settings: KG1, 24 h; 5 µM DDA, 2 µM TO, 2 µM GW, 10 µM 22(R)HC
Method: as §4, §10, §11

CC(C)CC[C@@H](O)[C@@H](C)[C@H]1CC[C@H]2[C@@H]3CC=C4C[C@@H](O)CC[C@]4(C)[C@H]3CC[C@]12C [22(R)HC, 22(R)-hydroxycholesterol]
cell death (B16F10 cells [1]): no impact on cell death | cell death (SKMEL-28 cells [2]): no impact on cell death | ABCA1 mRNA (B16F10 cells [3]; B16F10, siCT): 12.5±2.5 fold | ABCG1 mRNA (B16F10 cells [3]; B16F10, siCT): 0.7±0.1 fold | ABCG5 mRNA (B16F10 cells [3]; B16F10, siCT): 4.2±0.2 fold | ABCG8 mRNA (B16F10 cells [3]; B16F10, siCT): 1.6±0.2 fold | LC3A mRNA (B16F10 cells [3]; B16F10, siCT): 1.3±0.1 fold | LC3B mRNA (B16F10 cells [3]; B16F10, siCT): 1.1±0.2 fold | LDLR mRNA (B16F10 cells [3]; B16F10, siCT): 0.1±0.1 fold | NOR1 mRNA (B16F10 cells [3]; B16F10, siCT): 2.2±0.3 fold | Nur77 mRNA (B16F10 cells [3]; B16F10, siCT): 1.4±0.1 fold | SCD1 mRNA (B16F10 cells [3]; B16F10, siCT): 1.1±0.2 fold | SREBP1 mRNA (B16F10 cells [3]; B16F10, siCT): 2.2±0.2 fold | SULT2b1b mRNA (B16F10 cells [3]; B16F10, siCT): 1.5±0.3 fold | ABCA1 mRNA (B16F10 cells [3]; B16F10, siLXRβ): 4.2 ±0.9 fold | ABCG1 mRNA (B16F10 cells [3]; B16F10, siLXRβ): 1.1±0.1 fold | ABCG5 mRNA (B16F10 cells [3]; B16F10, siLXRβ): 2.0±0.5 fold | ABCG8 mRNA (B16F10 cells [3]; B16F10, siLXRβ): 1.0±0.1 fold | LC3A mRNA (B16F10 cells [3]; B16F10, siLXRβ): 1.0±0.3 fold | LC3B mRNA (B16F10 cells [3]; B16F10, siLXRβ): 1.0±0.1 fold | LDLR mRNA (B16F10 cells [3]; B16F10, siLXRβ): 1.1±0.1 fold | NOR1 mRNA (B16F10 cells [3]; B16F10, siLXRβ): 0.9±0.2 fold | Nur77 mRNA (B16F10 cells [3]; B16F10, siLXRβ): 0.8±0.2 fold | SCD1 mRNA (B16F10 cells [3]; B16F10, siLXRβ): 1.2±0.3 fold | SREBP1 mRNA (B16F10 cells [3]; B16F10, siLXRβ): 1.2±0.1 fold | SULT2b1b mRNA (B16F10 cells [3]; B16F10, siLXRβ): 1.1±0.2 fold | ABCA1 mRNA (SKMEL-28 cells [4]; SKMEL-28, siCT): 6.5±0.1 fold | ABCG1 mRNA (SKMEL-28 cells [4]; SKMEL-28, siCT): 2.1±0.2 fold | ABCG5 mRNA (SKMEL-28 cells [4]; SKMEL-28, siCT): 4.5±0.1 fold | ABCG8 mRNA (SKMEL-28 cells [4]; SKMEL-28, siCT): 0.4±0.1 fold | LC3A mRNA (SKMEL-28 cells [4]; SKMEL-28, siCT): 1.0±0.2 fold | LC3B mRNA (SKMEL-28 cells [4]; SKMEL-28, siCT): 0.9±0.2 fold | LDLR mRNA (SKMEL-28 cells [4]; SKMEL-28, siCT): 0.4±0.1 fold | NOR1 mRNA (SKMEL-28 cells [4]; SKMEL-28, siCT): 1.8±0.1 fold | Nur77 mRNA (SKMEL-28 cells [4]; SKMEL-28, siCT): 1.6±0.2 fold | SCD1 mRNA (SKMEL-28 cells [4]; SKMEL-28, siCT): 1.0±0.2 fold | SREBP1 mRNA (SKMEL-28 cells [4]; SKMEL-28, siCT): 2.3±0.2 fold | SULT2B1b mRNA (SKMEL-28 cells [4]; SKMEL-28, siCT): 1.9±0.1 fold | ABCA1 mRNA (SKMEL-28 cells [4]; SKMEL-28, siLXRβ): 1.5±0.1 fold | ABCG1 mRNA (SKMEL-28 cells [4]; SKMEL-28, siLXRβ): 0.2±0.1 fold | ABCG5 mRNA (SKMEL-28 cells [4]; SKMEL-28, siLXRβ): 1.7±0.3 fold | ABCG8 mRNA (SKMEL-28 cells [4]; SKMEL-28, siLXRβ): 0.7±0.2 fold | LC3A mRNA (SKMEL-28 cells [4]; SKMEL-28, siLXRβ): 1.0±0.2 fold | LC3B mRNA (SKMEL-28 cells [4]; SKMEL-28, siLXRβ): 1.0±0.1 fold | LDLR mRNA (SKMEL-28 cells [4]; SKMEL-28, siLXRβ): 1.1±0.1 fold | NOR1 mRNA (SKMEL-28 cells [4]; SKMEL-28, siLXRβ): 1.2±0.2 fold | Nur77 mRNA (SKMEL-28 cells [4]; SKMEL-28, siLXRβ): 0.8±0.2 fold | SCD1 mRNA (SKMEL-28 cells [4]; SKMEL-28, siLXRβ): 0.8±0.1 fold | SREBP1 mRNA (SKMEL-28 cells [4]; SKMEL-28, siLXRβ): 0.9±0.3 fold | SULT2B1b mRNA (SKMEL-28 cells [4]; SKMEL-28, siLXRβ): 1.0±0.2 fold | Sterol amount/total sterol: 8-DHC (B16F10 cells [5]): 0.08± 0.006 | Sterol amount/total sterol: zymostenol (B16F10 cells [5]): 0.24± 0.08 | NOR1 mRNA levels (Fold over control) (HL60 cells): 0.7 fold | Nur77 mRNA levels (Fold over control) (HL60 cells): 0.8 fold | NOR1 mRNA levels (Fold over control) (KG1 cells): 6.3 fold | Nur77 mRNA levels (Fold over control) (KG1 cells): 1.1 fold
